Data from patent publication EP4342530A1, “SORTILIN MODULATORS” (Insusense ApS, priority 2022, dated 2024).
pIC50: −log10 of the molar value. Values joined by “and” are separate entries in the source; they are usually repeats but may differ in a detail not shown here. Equal entries are not always repeated.

Assays:
[1] = target: T1, h-Sortilin (Homo sapiens, UniProt Q99523); assay: Neurotensin scintillation proximity assay (displacement of [3H]-neurotensin binding); conditions: 150 nM 6his-Sortilin, 5 nM [3H]-Neurotensin; average of at least 2 determinations; read-out: IC50 [3H]Neurotensin SPA
T1 sequence (Q99523 78-831): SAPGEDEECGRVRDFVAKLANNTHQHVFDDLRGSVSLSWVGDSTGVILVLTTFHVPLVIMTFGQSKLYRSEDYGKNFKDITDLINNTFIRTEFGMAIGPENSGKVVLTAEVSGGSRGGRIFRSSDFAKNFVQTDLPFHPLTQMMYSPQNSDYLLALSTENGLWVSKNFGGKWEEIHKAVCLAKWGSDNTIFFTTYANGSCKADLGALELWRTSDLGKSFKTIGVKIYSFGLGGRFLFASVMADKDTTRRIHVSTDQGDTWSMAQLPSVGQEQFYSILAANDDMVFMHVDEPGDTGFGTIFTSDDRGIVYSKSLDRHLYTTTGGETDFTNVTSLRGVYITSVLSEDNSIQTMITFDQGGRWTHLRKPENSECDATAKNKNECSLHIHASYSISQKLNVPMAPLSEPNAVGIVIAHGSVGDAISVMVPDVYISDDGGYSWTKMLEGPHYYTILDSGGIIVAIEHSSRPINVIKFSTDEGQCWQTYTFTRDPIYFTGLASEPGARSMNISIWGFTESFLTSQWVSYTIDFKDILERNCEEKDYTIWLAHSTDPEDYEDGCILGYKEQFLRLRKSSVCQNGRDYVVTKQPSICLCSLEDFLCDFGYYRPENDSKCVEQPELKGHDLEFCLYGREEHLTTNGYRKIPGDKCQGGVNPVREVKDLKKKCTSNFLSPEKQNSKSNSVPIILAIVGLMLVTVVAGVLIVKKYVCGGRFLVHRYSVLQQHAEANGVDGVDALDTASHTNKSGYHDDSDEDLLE
Description: The exemplified compounds of the invention were tested in a Neurotensin (NTS) scintillation proximity assay (SPA). NTS, which is a 13 amino acid neuropeptide, is a sortilin ligand. The IC50 is a measure of the amount of the compound required to inhibit the binding of NTS to sortilin by 50%. The skilled person will recognise that the lower the IC50 value, the less of the compound needed to achieve the desired effect, and as a result, the chances of undesirable off-target effects are reduced.
Compound affinity was determined by measuring the displacement of [3H]-neurotensin binding to h-Sortilin in SPA format. Total volume of 40 µl in 50 mM HEPES pH 7.4 assay buffer containing 100 mM NaCl, 2.0 mM CaCl2, 0.1% BSA and 0.1% Tween-20. Compound pre-incubation for 30 minutes at room temperature with 150 nM of 6his-Sortilin before 5 nM [3H]-Neurotensin and Ni chelate imaging beads (Perkin Elmer) were added, after 6 hours the plate was read on a ViewLux with 360 s exposure time. Dose-response evaluation of compounds was performed with 8 concentrations of drugs (covering 3 decades). IC50 values were calculated by nonlinear regression using the sigmoid concentration-response (variable slope) using CDD Vault software. All values reported are average of at least 2 determinations.

[2] = target: T2, Sortilin (Homo sapiens, UniProt Q99523); assay: Creoptix (GCI) binding kinetics, human Sortilin; conditions: Species Human, screened at 1 µM, 25 degrees Celsius
T2 construct: purchased Bio-Techne Ltd 3154-ST-050
T2 sequence (Q99523 78-755 limits assumed): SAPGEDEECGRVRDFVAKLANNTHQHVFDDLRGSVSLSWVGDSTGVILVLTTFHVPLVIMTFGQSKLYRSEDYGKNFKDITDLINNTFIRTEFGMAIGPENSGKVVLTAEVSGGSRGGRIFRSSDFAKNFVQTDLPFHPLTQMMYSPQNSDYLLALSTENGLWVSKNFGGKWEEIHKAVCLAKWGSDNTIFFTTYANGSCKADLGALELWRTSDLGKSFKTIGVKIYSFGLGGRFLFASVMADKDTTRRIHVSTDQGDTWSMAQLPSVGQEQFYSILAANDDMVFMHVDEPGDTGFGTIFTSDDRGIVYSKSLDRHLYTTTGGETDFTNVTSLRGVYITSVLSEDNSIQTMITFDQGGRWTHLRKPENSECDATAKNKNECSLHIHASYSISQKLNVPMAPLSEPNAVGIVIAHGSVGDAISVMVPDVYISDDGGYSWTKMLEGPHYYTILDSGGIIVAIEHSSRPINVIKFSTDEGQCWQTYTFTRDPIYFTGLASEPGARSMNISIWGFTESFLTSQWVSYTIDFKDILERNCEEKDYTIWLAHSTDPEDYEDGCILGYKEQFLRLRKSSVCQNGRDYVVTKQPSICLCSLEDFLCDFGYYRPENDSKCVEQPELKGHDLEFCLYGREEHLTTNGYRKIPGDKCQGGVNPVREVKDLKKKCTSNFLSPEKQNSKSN
Description: Creoptix (GCI) method - using SEQ ID NO.4 (Murine sortillin)
A protein, bound to a surface, is bathed in a solution containing potential ligands giving rise to binding kinetics to generate Kon and Koff rates, as well as a Kd.
All buffers described were filtered using a 0.2µm filter (Product number: 10300461, Nalgene) and degassed for 15 minutes prior to use.
A flow cell temperature of 25 degrees Celsius was used throughout the experiment.
A 4PCH chip was conditioned across all flow cells using 0.2 X concentration running buffer (running buffer composition: 1XHBS-N, pH 7.4, 3.4 mM EDTA, 1% DMSO) using pre-set conditioning wizard (WAVE control software) injecting: 0.1 M borate, 1 M NaCl (pH 9) followed by three start-up injections of 0.2 X running buffer.
A buffer exchange was performed and 1x running buffer (1XHBS-N, pH 7.4, 3.4 mM EDTA, 1% DMSO) used during the immobilisation procedure: An initial injection of EDC/NHS (mixed in 1:1 ratio) was performed across all 4-flow cells to activate the surface for amine coupling of ligands.
Recombinant Sortilin aliquots were thawed quickly by hand and centrifuged at 13,300 rpm for 10 minutes. A 10 µg/ml protein solution was then made in pH 5.0 acetate and injected once for 20 minutes over flow-cells 2, 3 and 4 for human, human (flow cells 2 & 3), and mouse Sortilin respectively followed by a 60 second dissociation period.
A final 7-minute passivation injection of 50 mM tris was used across all flow cells.
A flow rate of 10 µl/min was used for all conditioning and immobilisation cycles.
Compounds were screened at 1 µM using the in-built 'intermediate binders' settings: 100 ul/min, 45 s baseline, 25 s association, 300 s dissociation, with blanks every 5th sample and a DMSO correction (1.5 % DMSO at the start and end of the experiment as well as every 20 cycles. An acquisition rate of 10 Hz was used throughout the experiment.
Compounds were screened at a final assay concentration of 1 µM and a final DMSO concentration was 1 %. To achieve this, compounds were diluted in DMSO from 10 mM stocks to 100 µM (100 x final assay concentration) then diluted 1:100 in running buffer which contained no DMSO to establish a final assay concentration of compound of 1 µM and a final DMSO concentration of 1 % [DMSO].
Compounds and DMSO were mixed by plate shaking at 1000 rpm for 60 seconds using a Bioshake instrument.
A flow rate of 100 µl/min was used throughout the experiment.
Data was evaluated using the RAPID kinetic analysis tool in the GCI WAVE_control software with data fitted using a standard 1:1 kinetic BioModel.

| SMILES | pIC50 [1] | Kd ([2]; Form of Compound Free acid) | Kd ([2]; Form of Compound Mesylate salt) |
| --- | --- | --- | --- |
| CC(C)(C)CC[C@H](NCc1ccc2c(c1)CCOC2)C(=O)O [Example 1, (S)-2-((isochroman-6-ylmethyl)amino)-5,5-dimethylhexanoic acid] | 6.57 | 107 nM | – |
| CC(C)(C)CC[C@H](NCc1cnc2c(c1)COCC2)C(=O)O [Example 2, (2S)-5,5-dimethyl-2-[({5H,7H,8H-pyrano[4,3-b]pyridin-3-yl}methyl)amino]hexanoic acid] | 6.46 | 172 nM | – |
| CC(C)(C)CC[C@H](NCc1ccc2c(c1)OCCC2)C(=O)O [Example 5, (2S)-2-{[(3,4-dihydro-2H-1-benzopyran-7-yl)methyl]amino}-5,5-dimethylhexanoic acid] | 6.51 | 63.4 nM | – |
| CC(C)(C)CC[C@H](NCc1ccc2c(c1)CCC2)C(=O)O [Example 6, (2S)-2-{[(2,3-dihydro-1H-inden-5-yl)methyl]amino}-5,5-dimethylhexanoic acid] | 6.68 | 117 nM | – |
| CC(C)(C)CC[C@H](NCc1cnc2c(c1)CCCC2)C(=O)O [Example 7, (S)-5,5-dimethyl-2-(((5,6,7,8-tetrahydroquinolin-3-yl)methyl)amino)hexanoic acid] | 6.85 | 264 nM | – |
| CC(C)(C)CC[C@H](NCc1cnc2c(c1)CCC2)C(=O)O [Example 8, (2S)-2-[({5H,6H,7H-cyclopenta[b]pyridin-3-yl}methyl)amino]-5,5-dimethylhexanoic acid] | 6.30 | 191 nM | – |
| C[C@@H](N[C@@H](CCC(C)(C)C)C(=O)O)c1ccc2c(c1)CCCC2 [Example 11, (S)-5,5-dimethyl-2-(((R)-1-(5,6,7,8-tetrahydronaphthalen-2-yl)ethyl)amino)hexanoic acid] | 6.92 | 36.6 nM | 40.7 nM |
| C[C@@H](N[C@@H](CCC(C)(C)C)C(=O)O)c1ccc2c(c1)CCC2 [Example 13] | 6.68 | – | 57.5 nM |
| C[C@H](N[C@@H](CCC(C)(C)C)C(=O)O)c1ccc2c(c1)CCC2 [Example 14] | 6.55 | – | 35.1 nM |
| CC(C)(C)CC[C@H](NCc1ccc2c(c1)NCCC2)C(=O)O [Example 17, (2S)-5,5-dimethyl-2-{[(1,2,3,4-tetrahydroquinolin-7-yl)methyl]amino}hexanoic acid] | 6.72 | 97.3 nM | – |
| CN1C(=O)COc2ccc(CN[C@@H](CCC(C)(C)C)C(=O)O)cc21 [Example 21, (2S)-5,5-dimethyl-2-{[(4-methyl-3-oxo-3,4-dihydro-2H-1,4-benzoxazin-6-yl)methyl]amino}hexanoic acid] | 6.59 | 164 nM | – |
| Cn1c(=O)oc2cc(CN[C@@H](CCC(C)(C)C)C(=O)O)ccc21 [Example 22, (2S)-5,5-dimethyl-2-{[(3-methyl-2-oxo-2,3-dihydro-1,3-benzoxazol-6-yl)methyl]amino}hexanoic acid] | 6.33 | 350 nM | – |
| CN1C(=O)COc2cc(CN[C@@H](CCC(C)(C)C)C(=O)O)ccc21 [Example 25, (2S)-5,5-dimethyl-2-{[(4-methyl-3-oxo-3,4-dihydro-2H-1,4-benzoxazin-7-yl)methyl]amino}hexanoic acid] | 6.02 | 563 nM and 158 nM | – |
| CN1C(=O)CCc2ccc(CN[C@@H](CCC(C)(C)C)C(=O)O)cc21 [Example 28, (2S)-5,5-dimethyl-2-{[(1-methyl-2-oxo-1,2,3,4-tetrahydroquinolin-7-yl)methyl]amino}hexanoic acid] | 6.66 | 317 nM | – |
| CC(C)(C)CC[C@H](N[C@@H](c1cnc2c(c1)CCCC2)C(F)(F)F)C(=O)O [Example 33, (2S)-5,5-dimethyl-2-{[(1S)-2,2,2-trifluoro-1-(5,6,7,8-tetrahydroquinolin-3-yl)ethyl]amino}hexanoic acid] | 6.89 | 28 nM | – |
| CC(C)(C)CC[C@H](NCc1cccc(Oc2ccccc2)c1)C(=O)O [Example 34] | 6.09 | 216 nM | – |
| CC(C)(C)CC[C@H](NCc1ccc(Oc2ccccc2)nc1)C(=O)O [Example 38, (2S)-5,5-dimethyl-2-{[(6-phenoxypyridin-3-yl)methyl]amino}hexanoic acid] | 6.47 | – | 49.1 nM |
| C[C@@H](N[C@@H](CCC(C)(C)C)C(=O)O)c1ccc(Oc2ccccc2)nc1 [Example 43] | 6.39 | 68.3 nM | – |
| C[C@H](N[C@@H](CCC(C)(C)C)C(=O)O)c1ccc(Oc2ccccc2)nc1 [Example 44] | 6.13 | 127 nM | – |
| CC(C)(C)CC[C@H](N[C@@H](c1ccc2c(c1)CCCC2)C(F)F)C(=O)O [Example 45] | 6.92 | 43.9 nM | – |
| CC(C)(C)CC[C@H](N[C@@H](c1ccc2c(c1)OCCC2)C(F)F)C(=O)O [Example 46] | 6.89 | 43.4 nM | – |
| CC(C)(C)CC[C@H](N[C@@H](c1ccc2c(c1)CCCC2)C(F)(F)F)C(=O)O [Example 47] | 6.80 | 75.3 nM | – |
| C[C@@H](N[C@@H](CCC(C)(C)C)C(=O)O)c1ccc2c(c1)N(C)CCC2 [Example 48] | – | 46.2 nM | – |
| CC(C)(C)CC[C@H](N[C@@H](c1ccc2c(c1)CCC2)C(F)(F)F)C(=O)O [Example 49] | 6.66 | 504 nM | – |
